The numbers were not newly measured in PubChem BioAssay AID1259409 (Chemical Carcinogenesis Research Information System (CCRIS), 2018), which cites them from elsewhere.

The subject of this data set is rodent chemically induced tumor inhibition, incidence and multiplicity. Kind of data set: CCRIS tumor inhibitor studies. Conditions: Carcinogen: N-HYDROXY-2-ACETYLAMINOFLUORENE, 53-95-2, Dose [Inhibitor]: 0, 0.04 UMOL/G BW IN 10 µL/G BW TRIOCTANOIN ONCE 45 MIN PRIOR TO CARCINOGEN DOSE (STUDY DURATION: 10 MO), Route [Inhibitor]: INTRAPERITONEAL, Species: MOUSE, Strain/Sex: B6C3F1/MALE, Target Tissue: Type of Lesion: LIVER: HEPATOMA, Promoter: NONE USED.

Regarding `Oc1c(Cl)c(Cl)c(Cl)c(Cl)c1Cl`, the “tumour outcome (control, treated, inhibition, significance)” value is 34/34 (100%), 19/33 (58%), 42%, not calculated (Dose [Carcinogen]: 0.06 UMOL/G BW IN 5 µL/G BW OF 80% DMSO); 33/33 (100%), 31/37 (84%), 16%, not calculated (Dose [Carcinogen]: 0.11 UMOL/G BW IN 5 µL/G BW OF 80% DMSO); 39/39 (100%), 31/41 (76%), 24%, not calculated (Dose [Carcinogen]: 0.22 UMOL/G BW IN 5 µL/G BW OF 80% DMSO).
